In ChEMBL document CHEMBL4823282, “Novel Broad-Spectrum Antimicrobial Peptide Derived from Anoplin and Its Activity on Bacterial Pneumonia in Mice” (J Med Chem, 2021):
pIC50: −log10 of the molar value. In brackets after ≈: the same amount, converted by molar mass. Where a SMILES comes first, the peptide text is derived from it.

Tests used:
Bacteria [1] = assay: Antibacterial activity against bacteria incubated for 18 hrs by CLSI based broth dilution method; format: functional
Acinetobacter baumannii = assay: Antibacterial activity against Acinetobacter baumannii ATCC 19606 incubated for 18 hrs by CLSI based broth dilution method; format: functional; settings: ATCC 19606 = CIP 70.34 = JCM 6841
[2] = Selectivity ratio of MHC10 for BALB/C mouse erythrocytes to MIC for gram-negative bacteria; format: toxicity
[3] = system: Staphylococcus epidermidis; assay: Antibacterial activity against Staphylococcus epidermidis ATCC 12228 incubated for 18 hrs by CLSI based broth dilution method; format: functional
Fungi = assay: Antibacterial activity against fungi incubated for 18 hrs by CLSI based broth dilution method; format: functional
Bacillus subtilis = assay: Antibacterial activity against Bacillus subtilis ATCC 23857 incubated for 18 hrs by CLSI based broth dilution method; format: functional
Bacteria [4] = assay: Antibacterial activity against Gram-positive bacteria incubated for 18 hrs by CLSI based broth dilution method; format: functional
[5] = Selectivity ratio of MHC10 for BALB/C mouse erythrocytes to MIC for fungi; format: toxicity
[6] = Selectivity ratio of MHC10 for BALB/C mouse erythrocytes to MIC for bacteria; format: toxicity
[7] = Selectivity ratio of MHC10 for BALB/C mouse erythrocytes to MIC for gram positive bacteria; format: toxicity
[8] = Cytotoxicity against human glomerular mesangial cells incubated for 12 hrs by MTT assay; format: cell-based; settings: Glomerular mesangial cell
Bacteria [9] = assay: Antibacterial activity against Gram-negative bacteria incubated for 18 hrs by CLSI based broth dilution method; format: functional
Staphylococcus aureus = assay: Antibacterial activity against Staphylococcus aureus ATCC 25923 incubated for 18 hrs by CLSI based broth dilution method; format: functional
Enterococcus faecalis = assay: Antibacterial activity against Enterococcus faecalis ATCC 29212 incubated for 18 hrs by CLSI based broth dilution method; format: functional
Pseudomonas aeruginosa = assay: Antibacterial activity against Pseudomonas aeruginosa ATCC 27853 incubated for 18 hrs by CLSI based broth dilution method; format: functional
Escherichia coli = assay: Antibacterial activity against Escherichia coli ATCC 25922 incubated for 18 hrs by CLSI based broth dilution method; format: functional
Erythrocyte = assay: Hemolytic activity in BALB/C mouse erythrocytes incubated for 1 hr by absorbance method; format: ADME, cell-based
Klebsiella pneumoniae = assay: Antibacterial activity against Klebsiella pneumoniae ATCC 700603 incubated for 18 hrs by CLSI based broth dilution method; format: functional

Structure (SMILES) | MIC (Bacteria [1]) | MIC (Acinetobacter baumannii) | MIC [3] | MIC (Fungi) | MIC (Bacillus subtilis) | MIC (Bacteria [4]) | MIC (Bacteria [9]) | MIC (Staphylococcus aureus) | MIC (Enterococcus faecalis) | MIC (Pseudomonas aeruginosa) | MIC (Escherichia coli) | MIC (Klebsiella pneumoniae) | selectivity ratio [2] | selectivity ratio [5] | selectivity ratio [6] | selectivity ratio at 18 h [7] | pIC50 [8] | MHC10 (Erythrocyte)
CC(C)C[C@H](NC(=O)CN)C(=O)N[C@@H](CC(C)C)C(=O)N[C@@H](CCCCN)C(=O)N[C@@H](CCCNC(=N)N)C(=O)N[C@@H](CC(C)C)C(=O)N[C@@H](CCCCN)C(=O)N[C@H](C(=O)N[C@@H](CC(C)C)C(=O)N[C@@H](C)C(N)=O)[C@@H](C)O (H-GLLKRLKTLA-NH2) | 166 µM (≈ 185 µg/mL) | ≥ 512 µM | 64 µM (≈ 71.1 µg/mL) | 166 µM (≈ 185 µg/mL) | 32 µM (≈ 35.6 µg/mL) | 128 µM (≈ 142 µg/mL) | 215 µM (≈ 239 µg/mL) | 256 µM (≈ 285 µg/mL) | ≥ 512 µM | 256 µM (≈ 285 µg/mL) | 256 µM (≈ 285 µg/mL) | 256 µM (≈ 285 µg/mL) | 2.38 | 3.08 | 3.08 | 4 | ≤ 3.29 | >= 512 uM
CC(C)C[C@H](NC(=O)[C@H](CC(C)C)NC(=O)[C@@H](NC(=O)[C@H](CCCCN)NC(=O)[C@H](Cc1ccccc1)NC(=O)[C@H](CCCNC(=N)N)NC(=O)[C@H](CCCCN)NC(=O)[C@H](CC(C)C)NC(=O)[C@H](CC(C)C)NC(=O)CN)[C@@H](C)O)C(N)=O (H-GLLKRFKTLL-NH2) | 69.8 µM (≈ 82.9 µg/mL) | 256 µM (≈ 304 µg/mL) | 16 µM (≈ 19 µg/mL) | 69.8 µM (≈ 82.9 µg/mL) | 32 µM (≈ 38 µg/mL) | 64 µM (≈ 76 µg/mL) | 76.1 µM (≈ 90.4 µg/mL) | 128 µM (≈ 152 µg/mL) | 256 µM (≈ 304 µg/mL) | 64 µM (≈ 76 µg/mL) | 64 µM (≈ 76 µg/mL) | 128 µM (≈ 152 µg/mL) | 6.73 | 7.34 | 7.34 | 8 | ≤ 3.29 | >= 512 uM
CC(C)C[C@H](NC(=O)[C@H](CC(C)C)NC(=O)[C@@H](NC(=O)[C@H](CCCCN)NC(=O)[C@H](C)NC(=O)[C@H](CCCNC(=N)N)NC(=O)[C@H](CCCCN)NC(=O)[C@H](C)NC(=O)[C@H](CC(C)C)NC(=O)CN)[C@@H](C)O)C(N)=O (H-GLAKRAKTLL-NH2) | ≥ 512 µM | ≥ 512 µM | ≥ 512 µM | ≥ 512 µM | ≥ 512 µM | ≥ 512 µM | ≥ 512 µM | ≥ 512 µM | ≥ 512 µM | ≥ 512 µM | ≥ 512 µM | ≥ 512 µM | 1 | 1 | 1 | 1 | ≤ 3.29 | >= 512 uM

These reach a lower MIC (Bacteria [1]). Values come first.

MIC (Bacteria [1]) | MIC (Acinetobacter baumannii) | MIC [3] | MIC (Fungi) | MIC (Bacillus subtilis) | MIC (Bacteria [4]) | MIC (Bacteria [9]) | MIC (Staphylococcus aureus) | MIC (Enterococcus faecalis) | MIC (Pseudomonas aeruginosa) | MIC (Escherichia coli) | MIC (Klebsiella pneumoniae) | Structure (SMILES) | selectivity ratio [2] | selectivity ratio [5] | selectivity ratio [6] | selectivity ratio at 18 h [7] | pIC50 [8] | MHC10 (Erythrocyte)
58.7 µM (≈ 80.3 µg/mL) | 128 µM (≈ 175 µg/mL) | 128 µM (≈ 175 µg/mL) | 58.7 µM (≈ 80.3 µg/mL) | 64 µM (≈ 87.5 µg/mL) | 76.1 µM (≈ 104 µg/mL) | 45.3 µM (≈ 62 µg/mL) | 32 µM (≈ 43.8 µg/mL) | 128 µM (≈ 175 µg/mL) | 32 µM (≈ 43.8 µg/mL) | 32 µM (≈ 43.8 µg/mL) | 64 µM (≈ 87.5 µg/mL) | CC[C@H](C)[C@H](NC(=O)CN)C(=O)N[C@@H](CCCNC(=N)N)C(=O)N[C@@H](Cc1c[nH]c2ccccc12)C(=O)N[C@@H](CCCCN)C(=O)N[C@@H](Cc1ccccc1)C(=O)N[C@@H](Cc1c[nH]c2ccccc12)C(=O)N[C@@H](CCCCN)C(=O)N[C@@H](Cc1ccccc1)C(=O)N[C@H](C(N)=O)[C@@H](C)O (H-GIRWKFWKFT-NH2) | 11.3 | 8.72 | 8.72 | 6.73 | ≤ 3.29 | >= 512 uM
49.4 µM (≈ 62 µg/mL) | 128 µM (≈ 161 µg/mL) | 8 µM (≈ 10 µg/mL) | 49.4 µM (≈ 62 µg/mL) | 64 µM (≈ 80.4 µg/mL) | 45.3 µM (≈ 56.9 µg/mL) | 53.8 µM (≈ 67.6 µg/mL) | 64 µM (≈ 80.4 µg/mL) | 128 µM (≈ 161 µg/mL) | 64 µM (≈ 80.4 µg/mL) | 64 µM (≈ 80.4 µg/mL) | 128 µM (≈ 161 µg/mL) | CC(C)C[C@H](NC(=O)[C@H](Cc1ccccc1)NC(=O)CN)C(=O)N[C@@H](CCCCN)C(=O)N[C@@H](CCCNC(=N)N)C(=O)N[C@@H](Cc1ccccc1)C(=O)N[C@@H](CCCCN)C(=O)N[C@H](C(=O)N[C@@H](CC(C)C)C(=O)N[C@@H](Cc1ccccc1)C(N)=O)[C@@H](C)O (H-GFLKRFKTLF-NH2) | 7.14 | 7.78 | 7.78 | 8.48 | 3.68 | 384 µM
